How the values were obtained:
[1] = test system: Influenza strain A549 A/WSN/33 (H1N1); test: microbe, parasite or virus in culture; assay type: cell-based; conditions: Influenza A virus, A549, 20 h, A549 cells, influenza A/WSN/33 (H1N1), 20 hours incubation; read-out: A549_A(H1N1) EC50
in vitro = conditions: human, CC50, uninfected A549 cells, CellTiter-Glo

O=C1CCN2CN(C(c3ccccc3)c3ccccc3CN1)n1ccc(=O)c(O)c1C2=O (stereo not shown) [Compound 18, 12-hydroxy-18-phenyl-5,8,9,18-tetrahydro-10,17-methanobenzo[k]pyrido[1,2-b][1,2,5,9]tetraazacyclotridecine-7,11,13(6H)-trione]
EC50 [1]: 7910 nM | CC50 (in vitro): > 200000 nM

O=C1c2c(O)c(=O)ccn2N2CN1CC/C=C/COc1cc(F)c(F)c3c1[C@@H]2c1ccccc1SC3 (single isomer, unassigned) [Compound 88C, (23b*R, E)-16,17-difluoro-6-hydroxy-10,13,18,23b-tetrahydro-9H-1,8-methano[1]benzothiepino[5,4,3-lm]pyrido[2,1-i][1,7,10,11]benzoxatriazacyclotetradecine-5,7-dione]
EC50 [1]: > 500 nM | CC50 (in vitro): > 1000 nM

O=C1c2c(O)c(=O)ccn2N2CN1CC/C=C/COc1cccc3c1[C@H]2c1ccccc1SC3 (single isomer, unassigned) [Compound 37D, (1*S,13E)-7-hydroxy-16-oxa-23-thia-2,3,10-triazahexacyclo[15.12.1.12,10.03,8.021,30.024,29]hentriaconta-4,7,13,17,19,21(30),24(29),25,27-nonaene-6,9-dione]
EC50 [1]: 1 nM | CC50 (in vitro): > 200 nM

O=C1c2c(O)c(=O)ccn2N2CN1CC/C=C/CCOc1ccccc1[C@@H]2c1ccccc1 (single isomer, unassigned) [Compound 65D, (2*S,*E)-15-hydroxy-2-phenyl-12,13,14,16-tetrahydro-11H-4-oxa-1(1,3)-pyrido[2,1-f][1,2,4]triazina-3(1,2)-benzenacyclodecaphan-7-ene-14,16-dione]
EC50 [1]: 66 nM | CC50 (in vitro): > 2000 nM

O=C1c2c(O)c(=O)ccn2N2CN1C/C=C\COc1c(ccc(F)c1F)[C@H]2c1ccccc1C1CC1 (single isomer, unassigned) [Compound 136A, (18*R,*Z)-18-(2-cyclopropylphenyl)-3,4-difluoro-12-hydroxy-6,9-dihydro-18H-10,17-methanobenzo[b]pyrido[1,2-f][1]oxa[5,6,9]triazacyclotridecine-11,13-dione]
EC50 [1]: 6.3 nM | CC50 (in vitro): > 200 nM

O=C1c2c(O)c(=O)ccn2N2CN1C/C=C\COc1ccccc1[C@@H]2c1ccc(F)cc1 (single isomer, unassigned) [Compound 47B, (18*S,Z)-18-(4-fluorophenyl)-12-hydroxy-6,9-dihydro-18H-10,17-methanobenzo[b]pyrido[1,2-f][1]oxa[5,6,9]triazacyclotridecine-11,13-dione]
EC50 [1]: 15 nM | CC50 (in vitro): > 200 nM

O=C1c2c(O)c(=O)ccn2N2CN1CCCCOc1c(F)cccc1[C@@H]2c1ccccc1 (single isomer, unassigned) [Compound 114B, (18*S)-4-fluoro-12-hydroxy-18-phenyl-6,7,8,9-tetrahydro-18H-10,17-methanobenzo[b]pyrido[1,2-f][1]oxa[5,6,9]triazacyclotridecine-11,13-dione]
EC50 [1]: > 100 nM | CC50 (in vitro): > 200 nM

CC[C@H]1/C=C/COc2c(ccc(F)c2F)[C@@H](c2ccccc2)N2CN1C(=O)c1c(O)c(=O)ccn12 [Compound 101AA, (9S,18R,E)-9-ethyl-3,4-difluoro-12-hydroxy-18-phenyl-6,9-dihydro-18H-10,17-methanobenzo[b]pyrido[1,2-f][1]oxa[5,6,9]triazacyclotridecine-11,13-dione]
EC50 [1]: 0.7 nM | CC50 (in vitro): > 100 nM

C/C1=C/COc2ccccc2[C@@H](c2ccccc2)N2CN(C1)C(=O)c1c(O)c(=O)ccn12 (single isomer, unassigned) [Compound 38A, (18*R,Z)-12-hydroxy-8-methyl-18-phenyl-6,9-dihydro-18H-10,17-methanobenzo[b]pyrido[1,2-f][1]oxa[5,6,9]triazacyclotridecine-11,13-dione]
EC50 [1]: > 1000 nM | CC50 (in vitro): > 2000 nM

O=C1c2c(O)c(=O)ccn2N2CN1C/C=C\CCc1ccncc1[C@@H]2c1ccccc1 (single isomer, unassigned) [Compound 35B, (18*S,*Z)-12-hydroxy-18-phenyl-5,6,9,18-tetrahydro-10,17-methanodipyrido[1,2-b:4′,3′-k][1,2,5]triazacyclotridecine-11,13-dione]
EC50 [1]: > 1000 nM | CC50 (in vitro): > 2000 nM

CC[C@@H]1/C=C/COc2c(Cl)cccc2[C@@H](c2ccccc2)N2CN1C(=O)c1c(O)c(=O)ccn12 (single isomer, unassigned) [Compound 98BB, (9*R,18*R,E)-4-chloro-9-ethyl-12-hydroxy-18-phenyl-6,9-dihydro-18H-10,17-methanobenzo[b]pyrido[1,2-f][1]oxa[5,6,9]triazacyclotridecine-11,13-dione]
EC50 [1]: 2.1 nM | CC50 (in vitro): > 1000 nM

O=C1c2c(O)c(=O)ccn2N2CN1CCC/C=C/COc1ccccc1[C@H]2c1ccccc1 (single isomer, unassigned) [Compound 67A, (2*R,*Z)-15-hydroxy-2-phenyl-12,13,14,16-tetrahydro-11H-4-oxa-1(1,3)-pyrido[2,1-f][1,2,4]triazina-3(1,2)-benzenacyclodecaphan-6-ene-14,16-dione]
EC50 [1]: > 1000 nM | CC50 (in vitro): > 2000 nM

O=C1c2c(O)c(=O)ccn2N2CN1C/C=C\COc1ccccc1[C@H]2c1ccc(F)c(F)c1 (single isomer, unassigned) [Compound 45A, (18*R,Z)-18-(3,4-difluorophenyl)-12-hydroxy-6,9-dihydro-18H-10,17-methanobenzo[b]pyrido[1,2-f][1]oxa[5,6,9]triazacyclotridecine-11,13-dione]
EC50 [1]: > 1000 nM | CC50 (in vitro): > 2000 nM

O=C1c2c(O)c(=O)ccn2N2CN1C/C=C\COc1ccc(F)cc1[C@@H]2c1cccc(F)c1 (single isomer, unassigned) [Compound 25B, (18*S,Z)-2-fluoro-18-(3-fluorophenyl)-12-hydroxy-6,9-dihydro-18H-10,17-methanobenzo[b]pyrido[1,2-f][1]oxa[5,6,9]triazacyclotridecine-11,13-dione]
EC50 [1]: 11 nM | CC50 (in vitro): > 2000 nM

O=C1c2c(O)c(=O)ccn2N2CN1C1(/C=C/COc3ccccc3[C@@H]2c2ccccc2)CC1 [Compound 79A, (18'S,E)-12′-hydroxy-18′-phenyl-6′H,18′H-spiro[cyclopropane-1,9′-[10,17]methanobenzo[b]pyrido[1,2-f][1]oxa[5,6,9]triazacyclotridecine]-11′,13′-dione]
EC50 [1]: > 500 nM | CC50 (in vitro): > 1000 nM

COC[C@@H]1N2C/C=C\COc3ccccc3[C@@H](c3ccccc3)N1n1ccc(=O)c(O)c1C2=O (single isomer, unassigned) [Compound 109A, (18*R,19*R,*Z)-12-hydroxy-19-(methoxymethyl)-18-phenyl-6,9-dihydro-18H-10,17-methanobenzo[b]pyrido[1,2-f][1]oxa[5,6,9]triazacyclotridecine-11,13-dione]
EC50 [1]: 6.6 nM | CC50 (in vitro): > 200 nM

O=C1c2c(O)c(=O)ccn2N2CN1CC[C@@H]1C[C@@H]1COc1cccc3c1[C@H]2c1ccccc1SC3 (single isomer, unassigned) [Compound 144BA, (1*S,13*S,15*S)-7-hydroxy-17-oxa-24-thia-2,3,10-triazaheptacyclo[16.12.1.12,10.03,8.013,15.022,31.025,30]dotriaconta-4,18,20,22(31),25(30),26,28-heptaene-6,9-dione]
EC50 [1]: 72.9 nM | CC50 (in vitro): > 200 nM

O=C1c2c(O)c(=O)ccn2N2CN1C/C=C\COc1cccc3c1[C@@H]2c1ccccc1OC3 (single isomer, unassigned) [Compound 53B, (21a*S,Z)-16-hydroxy-6,10,13,21a-tetrahydro-7,8-(epiprop[1]en[1]yl[3]ylidene)-14,21-methanobenzo[6,7]oxepino[4,5-c]pyrido[1,2-f][1]oxa[5,6,9]triazacyclotridecine-15,17-dione]
EC50 [1]: > 1000 nM | CC50 (in vitro): > 2000 nM

O=C1c2c(O)c(=O)ccn2N2CN1C[C@H]1C[C@@H]1COc1c(F)cccc1[C@@H]2c1ccccc1 (single isomer, unassigned) [Compound 125BB, (1a*S,8*S,17a*S)-4-fluoro-14-hydroxy-8-phenyl-1a,2,17,17a-tetrahydro-1H,8H-9,16-methanobenzo[b]cyclopropa[k]pyrido[1,2-f][1]oxa[5,6,9]triazacyclotridecine-13,15-dione]
EC50 [1]: > 100 nM | CC50 (in vitro): > 200 nM

CC(C)[C@H]1/C=C/COc2cc(F)c(F)c3c2[C@@H](c2ccccc2SC3)N2CN1C(=O)c1c(O)c(=O)ccn12 (single isomer, unassigned) [Compound 169AA, (9*S,17a*S,*E)-24,25-difluoro-12-hydroxy-9-isopropyl-2,6,9,17a-tetrahydro-3,4-(epiprop[1]en[1]yl[3]ylidene)-10,17-methanobenzo[6,7]thiepino[4,5-c]pyrido[1,2-f][1]oxa[5,6,9]triazacyclotridecine-11,13-dione]
EC50 [1]: 48 nM | CC50 (in vitro): > 100 nM

CC[C@@H]1/C=C/COc2cc(F)ccc2[C@H](c2ccccc2)N2CN1C(=O)c1c(O)c(=O)ccn12 (single isomer, unassigned) [Compound 89BB, (9*R,18*S,E)-9-ethyl-3-fluoro-12-hydroxy-18-phenyl-6,9-dihydro-18H-10,17-methanobenzo[b]pyrido[1,2-f][1]oxa[5,6,9]triazacyclotridecine-11,13-dione]
EC50 [1]: 3 nM | CC50 (in vitro): > 200 nM

C[C@@H]1C/C=C/COc2c(F)cccc2[C@H](c2ccccc2)N2CN1C(=O)c1c(O)c(=O)ccn12 (single isomer, unassigned) [Compound 100BB, (2*S,9*R,*E)-33-fluoro-15-hydroxy-9-methyl-2-phenyl-12,13,14,16-tetrahydro-11H-4-oxa-1(1,3)-pyrido[2,1-f][1,2,4]triazina-3(1,2)-benzenacyclononaphan-6-ene-14,16-dione]
EC50 [1]: 1160 nM | CC50 (in vitro): 32500 nM

CC[C@H]1/C=C/COc2c(ccc(Cl)c2Cl)[C@@H](c2ccccc2)N2CN1C(=O)c1c(O)c(=O)ccn12 (single isomer, unassigned) [Compound 121AB, (9*S,18*R,*E)-3,4-dichloro-9-ethyl-12-hydroxy-18-phenyl-6,9-dihydro-18H-10,17-methanobenzo[b]pyrido[1,2-f][1]oxa[5,6,9]triazacyclotridecine-11,13-dione]
EC50 [1]: > 100 nM | CC50 (in vitro): > 200 nM
